Data taken from patent US11345659B2, “Pipecolic esters for inhibition of the proteasome” (THE BOARD OF REGENTS OF THE UNIVERSY OF TEXAS SYSTEM, priority 2018, dated 2022).
Like-named read-outs stand apart in the source and are kept apart here.

Key:
Format in all cases: biochemical
[1] = molecular target: T1, 20 S human housekeeping proteasome (Homo sapiens, UniProt P25787+P25789); experiment: ChT-L peptidase activity of 20 S proteasome activated with Rpt5 peptide
T1 construct: purified from erythrocytes; purchased Enzo Life Sciences, Inc. (Farmingdale, N.Y.); host or cells: human erythrocytes
Procedure: Human housekeeping 20 S and 26 S and complexes purified from erythrocytes were purchased from Enzo Life Sciences, Inc. (Farmingdale, N.Y.). The 1 mg/ml stock 20 S proteasome was diluted to 0.2 mg/ml working solution in 50 mM Tris/HCl, pH 8 containing 20% glycerol (dilution buffer). For the 26 S proteasome stock, the dilution buffer was supplemented with 2 mM ATP, 1 mM MgCl2, and 1 mM DTT (dithiothreitol). The ChT-L peptidase activity was measured as arbitrary intensity units of fluorescence emitted by 7-amino-4-methylcoumarin (AMC) released from the canonical model peptide substrate succinyl-LeuLeuValTyr-methylcoumarin (SucLLVY-MCA; Bachem Bioscience Inc., Philadelphia, Pa.), used at concentration of 100 μM. Free AMC (Sigma-Aldrich, St. Louis, Mo.) was used as the standard. The Rpt5 C-terminal peptide was synthesized (standard solid-phase peptide chemistry) and purified to at least 98% purity by GenScript (Piscataway, N.J.). The Rpt5 peptide and the peptide substrate were dissolved in dimethylsulfoxide (DMSO) and such stock solutions were stored at −20° C. The total concentration of DMSO in final reaction mixtures never exceeded 3% (vol/vol).
The reaction was carried out in 96-well plates, in 100 μL of reaction mixture, for 1 hour at 37° C. In the case of 20 S proteasome, the reaction mixture consisted of 45 mM Tris/HCl, pH 8, 100 mM KCl with premixed 10 μM Rpt5 peptide and 100 μM Suc-LLVY-MCA, to which 200 ng (nearly […]) of proteasome and desired concentration of tested compounds in 1 μL of DMSO were added. To test the activity of 26 S proteasome under conditions challenging coordination of the three pairs of peptidase active centers, a mixture of three canonical substrates specific for the ChT-L (SucLLVY-MCA), trypsin-like (T-L; BocLRR-MCA) and caspase-like (Casp-L; Z-LLE-MCA) was used with each of the substrates at 33.3 μM (100 μM of the total substrate concentration). The reaction mixture in this case consisted of 50 mM Tris/HCl, pH 8, 20 mM NaCl, premixed with the substrates and 2 mM ATP, to which 200 ng (nearly 0.1 nmol) of the 26 S working solution and desired concentration of tested compounds in 0.5 μL of DMSO were added. The reaction rates were calculated from a linear segment of kinetic curves constructed from measurements in 1-minutes intervals (Fluoroskan Ascent plate reader; Thermo Fisher Scientific Inc., Waltham, Mass.). Reaction rates were calculated using a linear fit executed by Slope Analyzer and Enzyme Kinetics applications launched within Origin Pro 2017 (OriginLab). Specific activity of the control 20 S proteasome activated with the Rpt5 peptide was in the range of 1.4 to 2.3 nanomoles of AMC product released by 1 mg of 20 S per second (1.95±0.24; n=18). Specific activity of the control 26 S proteasome challenged with three substrates reached on average 0.28±0.06 nanomoles of AMC product released by 1 mg of the enzyme per second (n=6). For comparison, degradation of the canonical Suc-LLVY-MCA substrate by the control 26 S proteasome preceded with a rate in the range of 0.6-0.8 nanomoles of AMC released per mg of the enzyme per second. The data are presented as mean±SD or as a representative set from at least 3 independent experiments.
The compounds were evaluated using the 20 S human housekeeping proteasome. It was activated with the Rpt5 derived 10-residue peptide that contains the C-terminal HbYX (hydrophobic-Tyr-any AA) motif activating the proteasome in trans and to some extend mimic the activation by the 19 S regulatory particle (Osmulski and Gaczynska (2013) Molecular pharmacology 84: 104-113; Smith et al. (2006) J. Struct. Biol. 156: 72-83; Smith et al. (2007) Mol. Cell 27: 731-744). Proteolytic activity was monitored over time using a fluorogenic peptide substrate specific for the chymotrypsin-like active center (ChT-L, Suc-LLVY-AMC) in the presence of a concentration range of the inhibitors. […]

[2] = molecular target: T2, latent core 20 S proteasome (Homo sapiens, UniProt P25787+P25789); experiment: PGPH peptidase activity of latent 20 S core
T2 construct: purified from erythrocytes; purchased Enzo Life Sciences, Inc. (Farmingdale, N.Y.); host or cells: human erythrocytes

[3] = molecular target: T2, latent core 20 S proteasome; experiment: T-L peptidase activity of latent 20 S core
[4] = molecular target: T2, latent core 20 S proteasome; experiment: Competition of compound 3 with tRpt6 peptide, ChT-L activity of latent core; conditions: 1 μM compound 3, 2 μM tRpt6
Text: According to the most recent model of the 26 S proteasome dynamic cycle, Rpt6 succeeds the Hb-Y—X containing anchor subunits Rpt5, Rpt3, and Rpt2 in docking into the α face pockets and promoting an intermediate conformation between latent and activated (open gate) proteasomes (Dong et al. ([…]) Nature 565(7737): 49-55). […] For comparison, no competition between tRpt5, expected to occupy the α5/α6 pocket, and compound 3 was detected.
Referring to FIG. 4, the C-terminal peptide derived from Rpt6 subunit compromises inhibition of the ChT-L activity of the latent core by the compound 3; however, only when added to the proteasome prior to the inhibitor. […] 1 μM compound 3 and 2 μM tRpt6 were tested. Mean±SD; n=3 to 6.

[5] = molecular target: T1, 20 S human housekeeping proteasome; experiment: ChT-L peptidase activity of 20 S proteasome activated with Rpt5 peptide; conditions: tRpt5 added last (compound 3 before tRpt5), n=3

COc1cc(CCCOC(=O)[C@@H]2CCCCN2C(=O)OCc2ccccc2)cc(OC)c1OC [Compound 3, 1-benzyl 2-(3-(3,4,5-trimethoxyphenyl)propyl) (S)-piperidine-1,2-dicarboxylate]
IC50 ([1]; ChT-L, Suc-LLVY-AMC substrate, 20 S activated with Rpt5 peptide, read-out: IC50): 2000 nM | IC50 ([1]; summary of FIG. 3A and FIG. 3B, read-out: in vitro determined IC50 values for peptidase activities): 2000 to 3000 nM | remaining ChT-L activity ([1]; tRpt5 added first, n=3): 53%±7% | IC50 [2]: > 50 µM | remaining activity at 10 µM ([2]; 10 μM compound, n=5, read-out: PGPH activity, % of control): 99% | remaining activity at 50 µM ([2]; 50 μM compound, n=3, read-out: PGPH activity, % of control): 71% | IC50 [3]: > 50 µM | remaining activity at 1 µM ([3]; 1 μM compound, n=3, read-out: T-L activity, % of the control): 77% | remaining activity at 50 µM ([3]; 50 μM compound, n=4, read-out: T-L activity, % of the control): 64% | inhibition of ChT-L of the core when tRpt6 is added before the compound [4]: significantly attenuated inhibition of the core | inhibition of the core when the compound is preincubated before addition of tRpt6 [4]: No attenuation was observed | remaining ChT-L activity [5]: 56%
